# Measured values reported in ChEMBL document CHEMBL5728881, “Substituted 6-azabenzimidazole compounds” (2021).
# Molecular target: Mitogen-activated protein kinase kinase kinase kinase 1 (Homo sapiens, UniProt Q92918)
# Assay: TBHPK1 IC50 Assay: Ten nanoliters of test compounds dissolved in DMSO at various concentrations were dispensed into a 384-well ProxiPlate (PerkinElmer #6008289). Five microliters of a solution of recombinant HPK1 diluted in HPK1 kinase assay buffer (50 mM BES [N,N-Bis(2-hydroxyethyl)-2-aminoethanesulfonic acid], pH 7.0; 10 mM magnesium chloride; 0.01% Triton X-100; 1 mM dithiothreitol; 0.01% bovine serum albumin; 0.1 mM sodium orthovanadate) was added to the compound-containing plate and was incubated for 15 minutes at 25° C. Five microliters of a mixture of ATP (Sigma-Aldrich #A6559) and peptide substrate STK S1 (Cisbio #61ST1BLC) diluted in HPK1 kinase assay buffer was then added to start the reaction. Final concentrations were 0.15 nM for HPK1, 10 μM for ATP, and 1 μM for the STK S1 peptide substrate. The reaction mixture was incubated at 25° C. for 3 hours and was stopped with the addition of 10 μl of an EDTA (Ethylenediaminetetraacetic acid)-containing detection buffer (Cisbio #62SDBRDF) supplemented with Europium cryptate-labeled anti-phospho-serine/threonine antibodies (Cisbio #62ST1PEJ) and XL665-labeled streptavidin (Cisbio #610SAXLG). The mixture was incubated for 16 hours at room temperature and peptide phosphorylation was measured by time-resolved fluorescence energy transfer (665 nm/620 nm) on an Envision plate reader (PerkinElmer).
# Mitogen-activated protein kinase kinase kinase kinase 1, sequence (Q92918 whole entry): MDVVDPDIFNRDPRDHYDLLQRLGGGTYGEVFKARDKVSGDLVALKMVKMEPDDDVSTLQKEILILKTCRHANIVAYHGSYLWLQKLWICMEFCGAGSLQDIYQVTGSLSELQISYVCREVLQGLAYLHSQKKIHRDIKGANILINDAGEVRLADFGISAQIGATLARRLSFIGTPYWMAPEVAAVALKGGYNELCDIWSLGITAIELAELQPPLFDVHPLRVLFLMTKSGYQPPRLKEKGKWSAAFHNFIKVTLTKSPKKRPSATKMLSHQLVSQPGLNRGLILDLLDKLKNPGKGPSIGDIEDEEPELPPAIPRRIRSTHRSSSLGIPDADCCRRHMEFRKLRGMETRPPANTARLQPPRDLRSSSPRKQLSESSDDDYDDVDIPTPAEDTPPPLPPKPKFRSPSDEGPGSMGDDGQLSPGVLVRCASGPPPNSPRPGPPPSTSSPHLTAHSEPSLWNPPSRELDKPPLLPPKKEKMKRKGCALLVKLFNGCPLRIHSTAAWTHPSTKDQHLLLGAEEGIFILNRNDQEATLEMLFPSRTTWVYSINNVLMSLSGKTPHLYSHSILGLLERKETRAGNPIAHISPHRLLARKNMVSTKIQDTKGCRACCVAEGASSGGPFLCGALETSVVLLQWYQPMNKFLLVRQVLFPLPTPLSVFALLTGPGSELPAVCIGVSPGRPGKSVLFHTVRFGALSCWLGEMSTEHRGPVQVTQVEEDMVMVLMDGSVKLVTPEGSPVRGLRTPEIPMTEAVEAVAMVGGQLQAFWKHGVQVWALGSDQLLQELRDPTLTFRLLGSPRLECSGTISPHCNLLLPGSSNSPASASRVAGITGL
row,Compound,IC50 [pM]
1,CC(C)n1cnc2cc(-c3cnc4c(c3)N([C@H]3C[C@](C)(N5CCC6CC6C5)C3)C(=O)C4(C)C)nc(Nc3cc(C(=O)NC4(CF)CC4)c(Cl)c(F)c3F)c21 (some centres not stated),90
2,CNC(=O)c1cc(Nc2nc(-c3ccc4c(c3)N([C@H]3C[C@@H](N5CC[C@H](C(F)F)C5)C3)C(=O)C4(C)C)cc3ncn(C(C)C)c23)ccc1C,200
